Data set [1] in a line: Subchronic OEA administration in rats (7 days): food intake, body weight, water intake. The note with it: 5 mg per kg i.p. daily for seven days. It counts as in vivo, rat. The procedure:
Feeding experiments. Acute experiments. Food intake was measured in 24-h food-deprived rats (Navarro, et al., J. Neurochem., 67:1982-1991 (1996)), administering drugs 15 min before food presentation. Subchronic experiments. Ad libitum fed rats received vehicle injections for three days. On day four, the animals were divided in two equal groups and gave them daily injections of vehicle or OEA (5 mg per kg at 1900 h) for 7 consecutive days, while measuring body weight, food intake and water intake.
In this example, OEA was subchronically administered to rats.

Data set [2] in a line: Conditioned taste aversion. It counts as in vivo, rat. The note with it: 20 mg per kg i.p. The protocol: Conditioned taste aversion. Rats were water-deprived for 24 h and then accustomed to drink from a graded bottle during a 30-min test period for four days. On day five, water was substituted with a 0.1% saccharin solution and, 30 min later, the animals received injections of vehicle, OEA (20 mg per kg) Or lithium chloride (0.4 M, 7.5 ml per kg). During the following two days, water consumption was recorded over 30-min test periods. The animals were then presented with water or saccharin, and drinking measured.

Data set [3] is described as follows: Circulating OEA levels after OEA administration (HPLC/MS). In kind it is in vivo. Conditions: rat, plasma, ip; 1 hr after 5 mg per kg i.p., rats; baseline 10.1±1.1. The protocol: HPLC/MS analyses. Plasma was prepared from blood obtained by cardiac puncture (Giuffrida, et al., Anal. Biochem., 280:87-93 (2000)) and CSF was collected from the cisterna magna using a 27G ½ needle (Precisionglide, USA). FAEs and NAPE were extracted from tissues with methanol/chloroform and fractionated by column chromatography (Giuffrida, et al., “Lipid Second Messengers” (ed. Laychock, S. G. & Rubin, R. P.) 113-133 (CRC Press LLC, Boca Raton, Fla., 1998)). FAEs were quantified by HPLC/MS, using an isotope dilution method (Giuffrida, et al., Anal. Biochem., 280:87-93 (2000)). Individual NAPE species were identified and quantified by HPLC/MS, using an external standard method (Calignano, et al., Nature, 408:96-101 (2000)).
OEA elicits hypophagia at physiologically relevant doses. […] Thus, the concentrations reached by OEA in blood during starvation can be sufficient to elicit notable behavioral responses.

Data set [4] has as its system Soleus muscle. The data set is described as follows: [14C]oleate oxidation to CO2 in soleus muscle. It counts as cell-based, rat. The note with it: 10 μM, 30 min incubation. An excerpt:
This example illustrates the effect of OEA on fat metabolism and methods for studying the same. Oleoylethanolamide (OEA) decreases body weight not only by suppressing appetite, but also by possibly enhancing body fat catabolism. The effects of OEA on fatty acid oxidation in major body-fat burning tissues (soleus muscle, liver, cultured cardiac myocytes and astrocytes) was examined. […] In addition, OEA induces a significant mobilization of triacylglycerol stores from primary white adipose tissue cells. Table 4 details the methods and effects of OEA on fatty acid oxidation in these cells. Structure-activity relationship experiments provide evidence that the effect of OEA on skeletal muscle fatty acid oxidation is specific (FIG. 8).

Data set [5] deals with T1, human PPARγ (Homo sapiens, UniProt P37231).
T1 construct: expressed in transfected cells; host or cells: HeLa (clonal reporter line HLR, stably transfected with pFA-PPARγ)
T1 sequence (P37231 238-503 limits assumed): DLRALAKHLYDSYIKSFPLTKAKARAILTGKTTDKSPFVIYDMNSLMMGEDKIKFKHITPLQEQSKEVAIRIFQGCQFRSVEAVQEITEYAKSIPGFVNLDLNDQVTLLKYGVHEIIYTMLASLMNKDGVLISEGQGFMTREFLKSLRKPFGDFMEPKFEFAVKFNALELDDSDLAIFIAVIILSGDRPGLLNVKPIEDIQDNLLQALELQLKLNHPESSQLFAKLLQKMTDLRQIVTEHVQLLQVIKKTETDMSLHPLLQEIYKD
The data set is described as follows: GAL4 chimeric receptor transactivation assay in HeLa cells, PPARγ. It counts as cell-based. The procedure: Transactivator plasmids pFA-PPARα, pFA-PPARδ, pFA-PPARγ and pFA-RXR, which encoded for the […] Of hPPARα ? ((499-1404), hPPARδ (412-1320), hPPARγ (610-1434) and hRXR (402-1389) fused to the DNA-binding domain (residues 1-147) Of yeast GAL4 under control of the human cytomegalovirus (CMV) promoter were generated. The plasmids contained a neomycin-resistance gene to provide stable selection with G418 (200 μg-ml^−1; Calbiochem). The HeLa cells were cultured in Dulbecco's-modified Eagles's medium (DMEM) supplemented with fetal bovine serum (10%). The cells were transfected with Fugene 6 (3 μl, Roche) Containing the pFR-luc plasmid (1 μg, Stratagene). Eighteen hours following transfection, the culture media was replaced with supplemented DMEM containing hygromycin (100 μg-ml^−1, Calbiochem). After 4 weeks in culture, the surviving clones were isolated and analyzed by luciferase assay. […] The cells were cultured in supplemented DMEM containing hygromycin and G418. For transactivation assays, cells were seeded in 6-well plates (50,000 cells per well) and incubated for 7 hours in supplemented DMEM containing hygromycin and G418, plus appropriate concentrations of test compounds. Dual-luciferase reporter assay system (Promega) and an MLX Microtiter® plate luminometer (Dynex) were used to determine luciferase activity in cell lysates. […]

We go through 1 molecule from patent US20050101542A1, “Combination therapy for controlling appetites” (Regents of the University of California, priority 2002, published 2005).

For the molecule `CCCCCCCC/C=C\CCCCCCCC(=O)NCCO` [OEA, Z-2-hydroxyethyl octadec-9-enamide], in data set [1], the cumulative food intake result was “small, but significant decrease”; the water intake entry was “did not affect”; the weight gain result is listed as “profound inhibition of weight gain”. Besides, the conditioned taste aversion entry in data set [2] is reported as “little effect”. This molecule returned a concentration at 1 hr in data set [3] of 0.0161 ± 0.0026 µM. Also, in data set [4], the “Stimulatory effect of 10 μM OEA on [14C]oleate oxidation to CO2” value is given as 36 ± 10 (n = 4) %. Further, the “effect on PPARγ” value in data set [5] is reported as “no effect”.
